Where “and” joins values, the source holds several entries; their conditions need not be identical. Equal entries are not always repeated.
Columns and labels:
Type in all cases: cell-based
[1] = test system: human neutrophils; experiment: Rapid adhesion of human neutrophils to fibrinogen and ICAM-1; conditions: 0.1 μM, mean+/−SD
Excerpt: (§1) All data are expressed as the mean+/−SD of bound cells in 0.2 mm^2 from three independent experiments made in duplicate.

[2] = test system: neutrophils; experiment: Rapid adhesion of neutrophils, soluble versus fibrillary Aβ1-42; conditions: fMLP, concentration not given, mean+/−SD
Excerpt: Although two-times less efficient than the soluble form, fibrillary Aβ triggered a significant increase of rapid neutrophil adhesion on both ICAM-1 and fibrinogen (Table 8; data are expressed as the mean+/−SD of bound cells in 0.2 mm^2 from three independent experiments made in duplicate).

[3] = test system: mouse neutrophils; experiment: Isoluminol chemiluminescence ROS assay, mouse neutrophils; conditions: mean+/−SD
Description: (§2) Isoluminol-based chemiluminescence assays were performed in HGCa in the presence of horseradish peroxidase (HRP) and isoluminol (both from Sigma-Aldrich) in a temperature-controlled Multilabel Count Victor X5 (Perkin Elmer). Assays were run in dark 96 well plates precoated with 250 μg/ml human fibrinogen in HGCa containing (final concentration): 100 μM isoluminol and 8 U/ml HRP. After addition of 1×10^5 human neutrophils or 7.5×10^5 mouse neutrophils, plates were left at 37° C. for 5-10 min and the reaction started by addition of the stimulus. Light emission was recorded every minute.
(§3) We used the chemotactic peptide fMLP as positive control. […] Data are mean+/−SD for three independent experiments.
Data are mean+/−SD counts per second.

[4] = test system: LFA-1; experiment: LFA-1 affinity state in human neutrophils (conformer-specific antibodies, cytofluorimetry); conditions: 0.1 μM, 10 s, mean fluorescence intensity, ctrl = 1
Excerpt: Neutrophil arrest is rapidly triggered by chemokines or other chemoattractants and is mediated by the binding of LFA-1 integrin to its vascular ligand ICAM-1. Ligation of specific heterotrimeric GPCRs by chemokines induces integrins to undergo a dramatic transition from a bent low-affinity conformation to extended intermediate- and high-affinity conformations, which leads to opening of the ligand-binding pocket. We hypothesized that Aβ may trigger intermediate and/or high affinity state of LFA-1 integrin and studied the effect of Aβ1-42 oligomers on human LFA-1 affinity using KIM127 and 327A conformer-specific antibodies for intermediate- and high-affinity state respectively.
The cells were stimulated for 10 s with 0.5 μmol/L of CXCL12, 0.1 μM fMLP, 20 μM Aβ1-42, or 20 μM Aβ42-1 under stirring at 37° C. After rapid washing, cells were stained with FITC-conjugated secondary polyclonal antibody and analyzed by cytofluorimetric quantification. Data are mean fluorescence intensity +/−SD from three independent experiments.

[5] = test system: mouse neutrophils; experiment: Rapid adhesion of mouse neutrophils to fibrinogen and ICAM-1; conditions: fMLP 1 μM, mean+/−SD
Excerpt: as §1

[6] = test system: human neutrophils; experiment: Isoluminol chemiluminescence ROS assay, human neutrophils; conditions: human neutrophils on fibrinogen, mean+/−SD
Description: One of the mechanisms of neuronal damage by beta-amyloid in Alzheimer's disease is the generation of reactive oxygen species (ROS). We determined whether Aβ1-42 oligomers induce ROS production in neutrophils by using a chemiluminescence assay.
as §2, §3

[7] = test system: human neutrophils; experiment: Rapid human neutrophil adhesion to ICAM-1, inhibition by bocMLF and PTx; conditions: 0.1 μM fMLP
Description: It is known that one of the receptors for Aβ is the receptor for fMLP, formylpeptide chemotactic receptor (FPR). To evaluate the contribution of this GPCR receptor on Aβ-dependent neutrophil adhesion, we inhibited its function using boc-MLF, a formyl-peptide chemotactic receptor antagonist. Human neutrophils were incubated for 2 minutes with buffer (control) or with oligomeric Aβ. 0.1 μM fMLP was used as a positive control. Values are expressed as the mean counts of bound cells in 0.2 mm^2 from three independent experiments in duplicate. Error bars represent SD. […] To exclude the possibility that rapid adhesion triggering was a consequence of a generic plasma membrane alteration due to the lipophilic nature of Aβ, we evaluated rapid adhesion in lymphocytes, which are known to lack fMLP receptors.

[8] = test system: human primary PMNs; experiment: Static adhesion of human primary PMNs to ICAM-1 with signaling inhibitors; conditions: 50 nM fMLP, 1 min
Description: As a model system, human primary PMNs were isolated form healthy donors stimulated to very rapid adhesion to purified human ICAM-1, ligand for the β2 integrins LFA-1 and Maci. fMLP (the classical chemoattractant) was the positive control. […] PMNs were treated for 30 min. with different concentrations of inhibitors followed by stimulation for 1 min with 50 nM fMLP or with 10 μM Aβ. The number of adherent cells was quantified by computer-assisted evaluation. Statistical analysis was SD.

## fMLP
[1]
  Rapid adhesion to Fibrinogen: 361.5 ± 88.2 bound cells in 0.2 mm^2
  Rapid adhesion to ICAM-1: 203.8 ± 29.2 bound cells in 0.2 mm^2
[2]
  Rapid adhesion to Fibrinogen: 285.5 ± 14.6 bound cells in 0.2 mm^2
  Rapid adhesion to ICAM-1: 578.5 ± 66.5 bound cells in 0.2 mm^2
[3]; 1 min
  ROS generation (chemiluminescence): 599 ± 199 counts per second
[3]; 2 min
  ROS generation (chemiluminescence): 231 ± 91 counts per second
[3]; 3 min
  ROS generation (chemiluminescence): 90 ± 17 counts per second
[3]; 4 min
  ROS generation (chemiluminescence): 65 ± 36 counts per second
[3]; 5 min
  ROS generation (chemiluminescence): 59 ± 54 counts per second
[4]
  327A (high-affinity state of LFA-1): 4.35 ± 0.63
  KIM127 (intermediate-affinity state of LFA-1): 2.94 ± 0.21
[5]
  Rapid adhesion to Fibrinogen: 72.40 ± 14.33 bound cells in 0.2 mm^2
  Rapid adhesion to ICAM-1: 183.6 ± 23.9 bound cells in 0.2 mm^2
[6]; 1 min
  ROS generation (chemiluminescence): 908 ± 137
[6]; 2 min
  ROS generation (chemiluminescence): 783 ± 108
[6]; 3 min
  ROS generation (chemiluminescence): 515 ± 103
[6]; 4 min
  ROS generation (chemiluminescence): 325 ± 158
[6]; 5 min
  ROS generation (chemiluminescence): 272 ± 134
[7]
  Neutrophil adhesion to ICAM-1, stimulus alone (Ctrl, no inhibitor): 497.1 ± 33.3 bound cells in 0.2 mm^2 and 484.1 ± 39.7 bound cells in 0.2 mm^2
[8]
  Adherent hPMNs to ICAM-1, fMLP, Mean, Control (no inhibitor): 444.6 and 500.8 and 433.5 and 463.1 and 484.1 and 486.8

Reference: patent US20210332139A1, “MODULATION OF LEUKOCYTE ACTIVITY IN TREATMENT OF NEUROINFLAMMATORY DEGENERATIVE DISEASE” (Leuvas Therapeutics, priority 2013, published 2021)
